For the data set the following is noted: for aqueous solubility: pH 6.8.

Values after ≈ are worked out from the molar mass of the structure shown. Where only a bound is given, the exact number is not on record here.

Experimental findings from the Biogen ADME set (Fang et al. 2023) are described below.

`O=S(=O)(Nc1ccc(C(O)(C(F)(F)F)C(F)(F)F)cc1)c1ccccc1` gave an intrinsic clearance, human liver microsomes of 7.61 mL/min/kg and an intrinsic clearance, rat liver microsomes of 17.1 mL/min/kg.
Consider `CC1=CCN(C(=O)c2cc(C)nc3cc(C)cc(C)c23)CC1`, for which the MDR1-MDCK efflux ratio was determined as 1.03; the intrinsic clearance, human liver microsomes amounted to 97.7 mL/min/kg; the intrinsic clearance, rat liver microsomes came out at 2140 mL/min/kg.
One may read the aqueous solubility as the concentration that dissolves in the medium under given conditions. Lower therefore signals a poorly soluble substance. On to `CCCS(=O)(=O)Nc1ccc(F)c(C(=O)c2c[nH]c3ncc(-c4ccc(Cl)cc4)cc23)c1F`, for which the MDR1-MDCK efflux ratio is 5.52; the fraction unbound, human plasma was 0.00025; the aqueous solubility was determined as 0.35 µg/mL (≈ 0.714 µM).
Regarding `CN(C)c1ccc(C(=O)N2CCN3C(=O)N(Cc4ccccc4)C(=O)[C@H]3C2)cc1`, the MDR1-MDCK efflux ratio stood at 1.61; the intrinsic clearance, human liver microsomes stood at 30 mL/min/kg; the intrinsic clearance, rat liver microsomes amounted to 389 mL/min/kg; the aqueous solubility stood at 13.6 µg/mL (≈ 34.7 µM).
As to `O=C(c1ccccc1-c1ncc(-c2ccccc2F)o1)N1CCC1`, the MDR1-MDCK efflux ratio came out at 0.659; the intrinsic clearance, human liver microsomes came out at 35.1 mL/min/kg; the intrinsic clearance, rat liver microsomes is 456 mL/min/kg; the aqueous solubility was determined as 43.6 µg/mL (≈ 135 µM).
Consider `CC(C)NC(=O)CN(C#N)c1ccccc1`, for which the intrinsic clearance, human liver microsomes is not above 4.74 mL/min/kg and the intrinsic clearance, rat liver microsomes was not above 10.7 mL/min/kg.
The matching figures for `COCCCNc1ncc(-c2ccsc2)c(-c2nc(C)c(C)s2)n1`: 23.6 mL/min/kg and 98.1 mL/min/kg.
With `O=C(NCC#CCN1CCc2ccccc2C1)NCc1ccc(F)cc1`, the MDR1-MDCK efflux ratio is 4; the intrinsic clearance, human liver microsomes was found to be 79.7 mL/min/kg; the intrinsic clearance, rat liver microsomes was found to be 545 mL/min/kg; the aqueous solubility was 33.5 µg/mL (≈ 95.2 µM).
Taken in the same sequence, the figures for `CC(C)(C)OC(=O)NCc1ccc(C(=N)NC(=O)OCc2ccccc2)cc1` were 2.23, 84.3 mL/min/kg, 1300 mL/min/kg and 2.59 µg/mL (≈ 6.75 µM).
As to `Cc1ccc(CCNc2ccc(C#N)nc2)cn1`, the MDR1-MDCK efflux ratio is 0.552; the intrinsic clearance, human liver microsomes was not above 4.74 mL/min/kg; the intrinsic clearance, rat liver microsomes was found to be 45.1 mL/min/kg.
Regarding `COc1ccc(C)cc1-n1ccc(C(=O)Nc2c3c(nn2C)CCC3)n1`, the MDR1-MDCK efflux ratio stood at 1.45; the intrinsic clearance, human liver microsomes amounted to 46.5 mL/min/kg; the intrinsic clearance, rat liver microsomes was determined as 255 mL/min/kg; the aqueous solubility is 33.2 µg/mL (≈ 94.5 µM).
As to `COc1cc(OC)cc(N(CCNC(C)C)c2ccc3ncc(-c4cnn(C)c4)nc3c2)c1`, the MDR1-MDCK efflux ratio stood at 106; the intrinsic clearance, human liver microsomes was 17.6 mL/min/kg; the intrinsic clearance, rat liver microsomes amounted to 790 mL/min/kg.
`COc1ccc(CN2CCC(c3cc[nH]n3)CC2)cn1` registered an intrinsic clearance, human liver microsomes not above 4.74 mL/min/kg and an intrinsic clearance, rat liver microsomes of 103 mL/min/kg.
As for `C[C@@H]1CC(=O)Nc2cccc(-c3ccc4c(c3)c(-c3cnn(C)c3)nn4C)c2N1`, the MDR1-MDCK efflux ratio turned out to be 57.3; the intrinsic clearance, human liver microsomes was determined as 8.83 mL/min/kg; the intrinsic clearance, rat liver microsomes is 46.5 mL/min/kg.
In the case of `Cc1ccc(NS(C)(=O)=O)c(C(=O)N(C)c2ccc3ccccc3c2)c1`, the MDR1-MDCK efflux ratio amounted to 1.8; the intrinsic clearance, human liver microsomes was 12.4 mL/min/kg; the intrinsic clearance, rat liver microsomes amounted to 1100 mL/min/kg; the aqueous solubility worked out at 54.4 µg/mL (≈ 148 µM).
As to `Cc1ccc(C2=NC3(CCN(Cc4ccc(F)cc4)CC3)NC2=O)cc1`, the MDR1-MDCK efflux ratio is 0.541; the intrinsic clearance, human liver microsomes came to 11.2 mL/min/kg; the intrinsic clearance, rat liver microsomes was found to be 669 mL/min/kg; the aqueous solubility is 12.7 µg/mL (≈ 36.2 µM).
Regarding `Cc1ccc(Oc2ccc(N)cc2)nn1`, the MDR1-MDCK efflux ratio came out at 0.725; the intrinsic clearance, human liver microsomes is not above 4.74 mL/min/kg; the intrinsic clearance, rat liver microsomes was not above 10.7 mL/min/kg.
Consider `Cc1c[nH]c(=O)n1-c1ccc(C(=O)Nc2ccc3ccccc3n2)cc1`, for which the MDR1-MDCK efflux ratio was 10.2; the fraction unbound, human plasma amounted to 0.0436; the intrinsic clearance, human liver microsomes came out at 8.88 mL/min/kg; the intrinsic clearance, rat liver microsomes was determined as 49.4 mL/min/kg. This molecule also came in with an aqueous solubility of 5.9 µg/mL (≈ 17.1 µM).
In the case of `COc1ccc(Nc2c(C#N)cnc3cc(OC)c(OC)cc23)cc1Cl`, the MDR1-MDCK efflux ratio came out at 3.24; the fraction unbound, human plasma was determined as 0.00925; the fraction unbound, rat plasma came out at 0.0131; the intrinsic clearance, human liver microsomes came to 53.1 mL/min/kg. This molecule also came in with an intrinsic clearance, rat liver microsomes of 574 mL/min/kg.
With `CCc1nsc(N2CCS(=O)(=O)CC2)n1`, the intrinsic clearance, human liver microsomes is not above 4.74 mL/min/kg and the intrinsic clearance, rat liver microsomes was not above 10.7 mL/min/kg.
For the molecule `CCc1nccn1Cc1nc(N)nc(N(C)C)n1`, the MDR1-MDCK efflux ratio amounted to 18.5; the intrinsic clearance, human liver microsomes is not above 4.74 mL/min/kg; the intrinsic clearance, rat liver microsomes was 17.3 mL/min/kg.
Take `COc1ccncc1NCc1cscn1`: the intrinsic clearance, human liver microsomes was not above 4.74 mL/min/kg and the intrinsic clearance, rat liver microsomes worked out at 25.4 mL/min/kg.
As for `Cc1nc(Cl)cc(Nc2cnn(C(C)(C)C)c2)n1`, the MDR1-MDCK efflux ratio came to 0.684; the intrinsic clearance, human liver microsomes is not above 4.74 mL/min/kg; the intrinsic clearance, rat liver microsomes is 21.4 mL/min/kg; the aqueous solubility came out at 22.6 µg/mL (≈ 85 µM).
With `CCCc1nnc2sc(-c3cc(C(C)C)nn3C)nn12`, the intrinsic clearance, human liver microsomes was found to be 31.3 mL/min/kg; the intrinsic clearance, rat liver microsomes turned out to be 593 mL/min/kg; the aqueous solubility came out at 17.9 µg/mL (≈ 61.5 µM).
On to `Cc1noc2nc(-c3ccccc3F)cc(C(=O)O)c12`, for which the aqueous solubility came out at 39.1 µg/mL (≈ 144 µM).
With `O=C(O)c1ccc(Nc2ncc3c(n2)-c2ccc(Cl)cc2C(c2c(F)cccc2F)=NC3)cc1`, the MDR1-MDCK efflux ratio turned out to be 3.32; the intrinsic clearance, human liver microsomes was not above 4.74 mL/min/kg; the intrinsic clearance, rat liver microsomes is 102 mL/min/kg; the aqueous solubility was 47.1 µg/mL (≈ 98.8 µM).
Take `COCC(=O)Nc1cccc(-n2cccc2)c1`: the MDR1-MDCK efflux ratio is 0.498; the intrinsic clearance, human liver microsomes amounted to 205 mL/min/kg; the intrinsic clearance, rat liver microsomes stood at 129 mL/min/kg; the aqueous solubility worked out at 50.9 µg/mL (≈ 221 µM).
For the molecule `NC(=O)COc1ccccc1-c1ccccc1`, the MDR1-MDCK efflux ratio stood at 0.621; the intrinsic clearance, human liver microsomes stood at 25.9 mL/min/kg; the intrinsic clearance, rat liver microsomes amounted to 75.6 mL/min/kg; the aqueous solubility worked out at 39 µg/mL (≈ 172 µM).
With `c1cnc(N2CC(c3nc4ccccc4[nH]3)C2)nc1`, the MDR1-MDCK efflux ratio amounted to 3.96; the intrinsic clearance, human liver microsomes came out at 10.1 mL/min/kg; the intrinsic clearance, rat liver microsomes came to 33.5 mL/min/kg; the aqueous solubility stood at 35 µg/mL (≈ 139 µM).
In turn, `COc1cc(Nc2ncc(F)c(Nc3ccc4c(n3)NC(=O)C(C)(C)O4)n2)cc(OC)c1OC` yielded an intrinsic clearance, human liver microsomes of 133 mL/min/kg and an intrinsic clearance, rat liver microsomes of 122 mL/min/kg.
For the molecule `[2H]c1nc(C)nc([2H])c1-c1cc(NC[C@@H](C)c2cccc3c(C(=O)NC)ccnc23)ncn1`, the MDR1-MDCK efflux ratio is 106; the intrinsic clearance, human liver microsomes worked out at 5.41 mL/min/kg; the intrinsic clearance, rat liver microsomes turned out to be 88.5 mL/min/kg.
`Cc1cccc(C)c1OCCn1nnnc1C`: the MDR1-MDCK efflux ratio amounted to 0.657; the intrinsic clearance, human liver microsomes is not above 4.74 mL/min/kg; the intrinsic clearance, rat liver microsomes came out at 97.1 mL/min/kg.
In the case of `Cc1cnn(CCNC(=O)C2(Cn3cccn3)CC2)c1`, the MDR1-MDCK efflux ratio stood at 6.11; the intrinsic clearance, human liver microsomes stood at 10.2 mL/min/kg; the intrinsic clearance, rat liver microsomes turned out to be 108 mL/min/kg.
